Here are results for 34 compounds from patent publication US10131645B2, “Benzofurans substituted with primary benzamide as HCV inhibitors” (BRISTOL-MYERS SQUIBB COMPANY, priority 2015, dated 2018).

The test system of data set [1] is genotype 1b (Con-1) HCV replicon. As to the kind of experiment: HCV Replicon Luciferase Assay. The format is cell-based. The note with it: Hepatitis C virus, 72 h, Huh-7 cells, genotype 1b replicon, Renilla luciferase, 3 days incubation. The procedure: The cell lines used to evaluate compounds consist of a human hepatocyte derived cell line (Huh-7) that constitutively expresses a genotype 1b (Con-1) HCV replicon or a genotype 1b (Con-1) HCV replicon with an asparagine replacing the cysteine at amino acid 316, or a genotype 2a (JFH-1) replicon, containing a Renilla luciferase reporter gene. These cells were maintained in Dulbecco's modified Eagle medium (DMEM) containing 10% FBS, 100 U/mL penicillin/streptomycin and 1.0 mg/mL G418.
To evaluate compound efficacy, titrated compounds were transferred to sterile 384-well tissue culture treated plates, and the plates were seeded with HCV replicon cells (50 μL at a density of 2.4×10^3 cells/well) in DMEM containing 4% FBS (final DMSO concentration at 0.5%). After 3 days incubation at 37° C., cells were analyzed for Renilla Luciferase activity using the EnduRen substrate (Promega cat #E6485) according to the manufacturer's directions. Briefly, the EnduRen substrate was diluted in DMEM and then added to the plates to a final concentration of 7.5 μM. The plates were incubated for at least 1 h at 37° C. then read on a Viewlux Imager (PerkinElmer) using a luminescence program. The 50% effective concentration (EC50) was calculated using the four-parameter logistic formula noted above.

In the next data set the test system is HCV. The note with it: cited from earlier work.

The EC50 is the concentration that produces a half-maximal response.

Where two headings read alike, the source gives them in different places.

Turning to `CCNc1cc2oc(-c3ccc(F)cc3)c(C(=O)NC)c2cc1-c1cccc(C(=O)NCC(F)(F)c2ccccc2)c1` [Compound 1001], in data set [1] (read-out: EC50 (uM) 1b), the EC50 amounted to 0.0486 µM.

On to `CCNc1cc2oc(-c3ccc(F)cc3)c(C(=O)NC)c2cc1-c1cccc(C(=O)NCC(F)(F)c2ccccn2)c1` [Compound 1002], for which the EC50 in data set [1] (read-out: EC50 1b (class)) was less than 0.1 µM.

Turning to `CCNc1cc2oc(-c3ccc(F)cc3)c(C(=O)NC)c2cc1-c1cccc(C(=O)NCC(C)(C)c2ccccc2)c1` [Compound 1003], the EC50 in data set [1] (read-out: EC50 1b (class)) is less than 0.1 µM.

`CCNc1cc2oc(-c3ccc(F)cc3)c(C(=O)NC)c2cc1-c1cccc(C(=O)NCC(C)(C)c2ccc(Cl)cc2)c1` [Compound 1004]: in data set [1] (read-out: EC50 1b (class)), the EC50 is less than 0.1 µM.

On to `CCNc1cc2oc(-c3ccc(F)cc3)c(C(=O)NC)c2cc1-c1cccc(C(=O)NC(C)(C(=O)OC)C(F)(F)F)c1` (centres unmarked) [Compound 1005], for which the EC50 in data set [1] (read-out: EC50 1b (class)) was less than 0.1 µM.

Regarding `CCNc1cc2oc(-c3ccc(F)cc3)c(C(=O)NC)c2cc1-c1cccc(C(=O)NC(C#N)c2ccccc2)c1` (centres unmarked) [Compound 1006], the EC50 in data set [1] (read-out: EC50 (uM) 1b) amounted to 0.0162 µM.

`CCNc1cc2oc(-c3ccc(F)cc3)c(C(=O)NC)c2cc1-c1cccc(C(=O)NC(C#N)C(=O)NC)c1` (centres unmarked) [Compound 1007]: the EC50 in data set [1] (read-out: EC50 1b (class)) was less than 0.1 µM.

With `CCNc1cc2oc(-c3ccc(F)cc3)c(C(=O)NC)c2cc1-c1cccc(C(=O)NC(C#N)C(N)=O)c1` (centres unmarked) [Compound 1008], in data set [1] (read-out: EC50 1b (class)), the EC50 is less than 0.1 µM.

With `CCNc1cc2oc(-c3ccc(F)cc3)c(C(=O)NC)c2cc1-c1cccc(C(=O)NC[C@H](F)CO)c1` [Compound 1009], in data set [1] (read-out: EC50 1b (class)), the EC50 is less than 0.1 µM.

Regarding `CCNc1cc2oc(-c3ccc(F)cc3)c(C(=O)NC)c2cc1-c1cccc(C(=O)NC(C)(C#N)C2CC2)c1` (centres unmarked) [Compound 1010], the EC50 in data set [1] (read-out: EC50 1b (class)) was less than 0.1 µM.

In the case of `CCNc1cc2oc(-c3ccc(F)cc3)c(C(=O)NC)c2cc1-c1cccc(C(=O)NC(C2CC2)C(F)(F)F)c1` (centres unmarked) [Compound 1011], the EC50 in data set [1] (read-out: EC50 (uM) 1b) amounted to 0.0128 µM.

Consider `CCNc1cc2oc(-c3ccc(F)cc3)c(C(=O)NC)c2cc1-c1cccc(C(=O)NC(C(=O)OC)C(F)(F)F)c1` (centres unmarked) [Compound 1012], for which the EC50 in data set [1] (read-out: EC50 1b (class)) lay in the range of 0.1 to 1 µM.

As to `CCN(c1cc2oc(-c3ccc(F)cc3)c(C(=O)NC)c2cc1-c1cccc(C(=O)NC(c2ccccc2)C(F)(F)F)c1)S(C)(=O)=O` (centres unmarked) [Compound 2001], in data set [1] (read-out: EC50 1b (class)), the EC50 is less than 0.1 µM.

Turning to `CCN(c1cc2oc(-c3ccc(F)cc3)c(C(=O)NC)c2cc1-c1cccc(C(=O)NC(c2ccccn2)C(F)(F)F)c1)S(C)(=O)=O` (centres unmarked) [Compound 2002], the EC50 in data set [1] (read-out: EC50 1b (class)) is less than 0.1 µM.

With `CCN(c1cc2oc(-c3ccc(F)cc3)c(C(=O)NC)c2cc1-c1cccc(C(=O)NC(C2CC2)C(F)(F)F)c1)S(C)(=O)=O` (centres unmarked) [Compound 2003], in data set [1] (read-out: EC50 1b (class)), the EC50 was less than 0.1 µM.

Take `CCN(c1cc2oc(-c3ccc(F)cc3)c(C(=O)NC)c2cc1-c1cccc(C(=O)NC(c2cccnc2)C(F)(F)F)c1)S(C)(=O)=O` (centres unmarked) [Compound 2004]: the EC50 in data set [1] (read-out: EC50 (uM) 1b) came out at 0.0096 µM.

Consider `CCN(c1cc2oc(-c3ccc(F)cc3)c(C(=O)NC)c2cc1-c1cccc(C(=O)NC(C(=O)OC)C(F)(F)F)c1)S(C)(=O)=O` (centres unmarked) [Compound 2005], for which the EC50 in data set [1] (read-out: EC50 1b (class)) lay within 0.1 to 1 µM.

Regarding `CCN(c1cc2oc(-c3ccc(F)cc3)c(C(=O)NC)c2cc1-c1cccc(C(=O)NC(C#N)c2ccccc2)c1)S(C)(=O)=O` (centres unmarked) [Compound 2006], the EC50 in data set [1] (read-out: EC50 1b (class)) was less than 0.1 µM.

With `CCN(c1cc2oc(-c3ccc(F)cc3)c(C(=O)NC)c2cc1-c1cccc(C(=O)NC(C(N)=O)c2ccccc2)c1)S(C)(=O)=O` (centres unmarked) [Compound 2007], the EC50 in data set [1] (read-out: EC50 1b (class)) was 0.1 to 1 µM.

As to `CCOc1cc(C(C#N)NC(=O)c2cccc(-c3cc4c(C(=O)NC)c(-c5ccc(F)cc5)oc4cc3N(CC)S(C)(=O)=O)c2)ccc1OC(C)C` (centres unmarked) [Compound 2008], the EC50 in data set [1] (read-out: EC50 1b (class)) was less than 0.1 µM.

In the case of `CCN(c1cc2oc(-c3ccc(F)cc3)c(C(=O)NC)c2cc1-c1cccc(C(=O)NC(C)(C#N)C2CC2)c1)S(C)(=O)=O` (centres unmarked) [Compound 2009], the EC50 in data set [1] (read-out: EC50 (uM) 1b) came to 0.0032 µM.

For the compound `CNC(=O)c1c(-c2ccc(F)cc2)oc2cc(N(CC3CC3)S(C)(=O)=O)c(-c3cccc(C(=O)NC(C)(C#N)C4CC4)c3)cc12` (centres unmarked) [Compound 3001], in data set [1] (read-out: EC50 1b (class)), the EC50 is less than 0.1 µM.

For `CNC(=O)c1c(-c2ccc(F)cc2)oc2cc(N(CCF)S(C)(=O)=O)c(-c3cccc(C(=O)N[C@H](COC)C4CC4)c3)cc12` [Compound 4001], the EC50 in data set [1] (read-out: EC50 1b (class)) is less than 0.1 µM.

Consider `CNC(=O)c1c(-c2ccc(F)cc2)oc2cc(N(CCF)S(C)(=O)=O)c(-c3cccc(C(=O)N[C@@H](COC)C4CC4)c3)cc12` [Compound 4002], for which the EC50 in data set [1] (read-out: EC50 1b (class)) is less than 0.1 µM.

For the compound `CNC(=O)c1c(-c2ccc(F)cc2)oc2cc(N(CCF)S(C)(=O)=O)c(-c3cccc(C(=O)N[C@@H](CO)C4CC4)c3)cc12` [Compound 4003], in data set [1] (read-out: EC50 1b (class)), the EC50 was less than 0.1 µM.

Turning to `CNC(=O)c1c(-c2ccc(F)cc2)oc2cc(N(CCCF)S(C)(=O)=O)c(-c3cccc(C(=O)NC(C4CC4)C(F)(F)F)c3)cc12` (centres unmarked) [Compound 5001], the EC50 in data set [1] (read-out: EC50 (uM) 1b) amounted to 0.0229 µM.

For the compound `CNC(=O)c1c(-c2ccc(F)cc2)oc2cc(N(CCCF)S(C)(=O)=O)c(-c3cccc(C(=O)NC(c4ccccn4)C(F)(F)F)c3)cc12` (centres unmarked) [Compound 5002], the EC50 in data set [1] (read-out: EC50 1b (class)) was less than 0.1 µM.

Take `CNC(=O)c1c(-c2ccc(F)cc2)oc2cc(N(CCCF)S(C)(=O)=O)c(-c3cccc(C(=O)NC(C)(C#N)C4CC4)c3)cc12` (centres unmarked) [Compound 5003]: in data set [1] (read-out: EC50 1b (class)), the EC50 was less than 0.1 µM.

As for `CCN(CC)c1cc2oc(-c3ccc(F)cc3)c(C(=O)NC)c2cc1-c1cccc(C(=O)NC(C(N)=O)c2ccccc2)c1` (centres unmarked) [Compound 6001], the EC50 in data set [1] (read-out: EC50 1b (class)) was less than 0.1 µM.

Consider `CCN(CC)c1cc2oc(-c3ccc(F)cc3)c(C(=O)NC)c2cc1-c1cccc(C(=O)N[C@@H](CO)C(N)=O)c1` [Compound 6002], for which the EC50 in data set [1] (read-out: EC50 1b (class)) is 0.1 to 1 µM.

`CCN(CC)c1cc2oc(-c3ccc(F)cc3)c(C(=O)NC)c2cc1-c1cccc(C(=O)N[C@]2(C(=O)O)C[C@@H]2CO)c1` [Compound 6004]: the EC50 in data set [1] (read-out: EC50 (uM) 1b) came to 0.946 µM.

`CCN(CC)c1cc2oc(-c3ccc(F)cc3)c(C(=O)NC)c2cc1-c1cccc(C(=O)NCC(C(=O)O)C(F)(F)F)c1` (centres unmarked) [Compound 6005]: the EC50 in data set [1] (read-out: EC50 1b (class)) is 0.1 to 1 µM.

For the compound `CCN(C(=O)C(F)(F)F)c1cc2oc(-c3ccc(F)cc3)c(C(=O)NC)c2cc1-c1cccc(C(=O)NC(C(=O)OC)C(F)(F)F)c1` (centres unmarked) [Compound 7001], the EC50 in data set [1] (read-out: EC50 1b (class)) lay in the range of 0.1 to 1 µM.

In the case of `CNC(=O)c1c(-c2ccc(F)cc2)oc2cc(N(CCO)S(C)(=O)=O)c(C3CC3)cc12` [HCV-796], the hepatic toxicity entry with HCV (extended dosing of the combination regimens) was “hepatic toxicity observed”. Besides, in the data set with HCV (patients, single agent transient, more robust with interferon and ribavirin), the “HCV RNA levels in patients” value is on record as “reduce HCV RNA levels”.
